# System: 435261-313-R-J1-PDC complex spheroid viability
# Assay: Anticancer human tumor 435261-313-R-J1-PDC patient-derived colon adenocarcinoma cell line growth inhibition [GQUAD]
# Details: for IC50: curve of first compound; for viability, T/C: stronger effect = lower value
# Description: DNA G-quadruplex Stabilizer Agents in Combinations in Complex Spheroids
# A high-throughput screen of multi-cell type tumor spheroids was designed to identify active combinations of DNA G-quadruplex stabilizer agents and targeted small molecules. Complex spheroids include a stromal component modeled by human endothelial cells (HUVEC) and fibroblasts modeled by human mesenchymal stem cells (MSCs). The concentration ranges selected for each drug and investigational agent were based upon clinically achievable concentrations if the clinical Cmax of the agent was known.
# Compounds. The drugs and investigational agents: pidnarulex (CX-5461; NSC782164), APTO-253 (NSC789042), BRACO-19 (NSC847499), peposertib (NSC802822), ceralasertib (NSC780249), elimusertib (NSC800525), camonsertib (NSC841442), AZD-1390 (NSC803789), olaparib (NSC753686), talazoparib (NSC767125), ART-558 (NSC835418), sotorasib (NSC818433), MRTX-1133 (NSC836407), SN-38 (NSC673596), topotecan (NSC609699), etoposide (NSC141540), doxorubicin (NSC123127), gemcitabine (NSC613327), 5-fluorouracil (NSC19893), paclitaxel (NSC125973), vemurafenib (NSC761431), panobinostat (NSC761190), R-306465 (JNJ-16241199; NSC773264), adavosertib (NSC754352), TP-3654 (NSC805149), carboplatin (NSC241240), KSQ-4279 (NSC840948), and staurosporine (NSC755774) were obtained from the National Cancer Institute (NCI) Developmental Therapeutics Program Chemical Repository (34). The FDA-approved anticancer drug set is available from the NCI Developmental Therapeutics Program. […] The stock solutions were prepared in dimethyl sulfoxide (DMSO, Sigma-Aldrich, St. Louis, MO, cat. D2650) at 800-fold the tested concentration and stored at -70 degrees C prior to their use. All drugs and investigational agents were tested over a range starting from a high concentration at or near the clinical Cmax and decreasing in half-log increments. If the clinical Cmax for an agent had not been determined, the highest concentration tested was 10 microM.
# 2.3 Cell Culture. All cells were maintained in an incubator at 37 degrees C and 5% CO2 with 95% humidity. The PDC lines were cultured according to standard operating procedures established by the NCI PDMR. All PDCs were thawed and cultured in Matrigel-coated flasks prepared with a working solution of 1X Ham's F-12 nutrient mix, without supplementation (Invitrogen, cat. 11765054), 100 U/mL penicillin-streptomycin (Invitrogen, cat. 15140122), and 2.5% Matrigel (Corning Inc., cat. 354248) for the first three passages. The 857933-349-R-J2-PDC line was cultured in 6C/Colon 1B media, which includes advanced DMEM/F-12 (Thermo Fisher Scientific, cat. 12634028), 10 mM HEPES (Thermo Fisher Scientific, cat. 15630080), 1X GlutaMAX supplement (Thermo Fisher Scientific, cat. 35050061), 0.1 mg/mL primocin (InvivoGen, cat. ant-pm-2), 10% defined fetal bovine serum, heat inactivated (HyClone Laboratories Inc., cat. SH30070.03HI), 50% L-WRN conditioned media (ATCC, cat. CRL-3276), 1.25 mM N-Acetyl-L-cysteine (Sigma-Aldrich, cat. A9165), 10 mM nicotinamide (Sigma-Aldrich, cat. N0636), 1X B-27 supplement (Thermo Fisher Scientific, cat. 17504044), 1X N-2 supplement (Thermo Fisher Scientific, cat. 17502048), 10 microM Y-27632 dihydrochloride (Tocris Bioscience, cat. 1254), and 50 ng/mL human EGF recombinant protein (Thermo Fisher Scientific, cat. PHG0311). The 485176-168-R4-J1-PDC line was cultured in Panc media, which includes all 6C/Colon 1B media components plus 100 ng/mL human FGF-10 (Thermo Fisher Scientific, cat. 100-26), 500 nM SB-431542 (Selleckchem, cat. S1067), and gastrin (Tocris, cat. 3006).
# […]
# [1] = second compound 0.0316 µM, first compound 0.0316 µM
# [2] = second compound 0.0316 µM, first compound 0.1 µM
# [3] = second compound 0.0316 µM, first compound 0.316 µM
# [4] = second compound 0.0316 µM, first compound 1 µM
# [5] = second compound 0.0316 µM, first compound 3.16 µM
# [6] = second compound 0.0316 µM, first compound 10 µM
# [7] = second compound 0.1 µM, first compound 0.0316 µM
# [8] = second compound 0.1 µM, first compound 0.1 µM
# [9] = second compound 0.1 µM, first compound 0.316 µM
# [10] = second compound 0.1 µM, first compound 1 µM
# [11] = second compound 0.1 µM, first compound 3.16 µM
# [12] = second compound 0.1 µM, first compound 10 µM
# [13] = second compound 0.316 µM, first compound 0.0316 µM
# [14] = second compound 0.316 µM, first compound 0.1 µM
# [15] = second compound 0.316 µM, first compound 0.316 µM
# [16] = second compound 0.316 µM, first compound 1 µM
# [17] = second compound 0.316 µM, first compound 3.16 µM
# [18] = second compound 0.316 µM, first compound 10 µM
# [19] = second compound 1 µM, first compound 0.0316 µM
# [20] = second compound 1 µM, first compound 0.1 µM
# [21] = second compound 1 µM, first compound 0.316 µM
# [22] = second compound 1 µM, first compound 1 µM
# [23] = second compound 1 µM, first compound 3.16 µM
# [24] = second compound 1 µM, first compound 10 µM
# [25] = second compound 3.16 µM, first compound 0.0316 µM
# [26] = second compound 3.16 µM, first compound 0.1 µM
# [27] = second compound 3.16 µM, first compound 0.316 µM
# [28] = second compound 3.16 µM, first compound 1 µM
# [29] = second compound 3.16 µM, first compound 3.16 µM
# [30] = second compound 3.16 µM, first compound 10 µM
# [31] = second compound 10 µM, first compound 0.0316 µM
# [32] = second compound 10 µM, first compound 0.1 µM
# [33] = second compound 10 µM, first compound 0.316 µM
# [34] = second compound 10 µM, first compound 1 µM
# [35] = second compound 10 µM, first compound 3.16 µM
# [36] = second compound 10 µM, first compound 10 µM
# 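Also: spheroids exposed to the agents for seven days before readout.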
# 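For viability, T/C in this document: percent of vehicle control viability with DMSO wells as 100%.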
compound,measurement,setting,value
CC(C)n1c(=O)n(C)c2cnc3cc(F)c(-c4ccc(OCCCN5CCCCC5)nc4)cc3c21 + CN(C)c1ccc(Nc2c3ccc(NC(=O)CCN4CCCC4)cc3nc3cc(NC(=O)CCN4CCCC4)ccc23)cc1,IC50,second compound 0.0316 µM,> 10000 nM
same,IC50,second compound 0.1 µM,7000 nM
same,IC50,second compound 0.316 µM,6840 nM
same,IC50,second compound 1 µM,7580 nM
same,IC50,second compound 3.16 µM,167 nM
same,IC50,second compound 10 µM,60.4 nM
same,"viability, T/C",[1],127%
same,"viability, T/C",[2],103%
same,"viability, T/C",[3],92.8%
same,"viability, T/C",[4],98.6%
same,"viability, T/C",[5],89.2%
same,"viability, T/C",[6],59.1%
same,"viability, T/C",[7],75.2%
same,"viability, T/C",[8],99.2%
same,"viability, T/C",[9],97.7%
same,"viability, T/C",[10],71.3%
same,"viability, T/C",[11],85%
same,"viability, T/C",[12],34.4%
same,"viability, T/C",[13],88.8%
same,"viability, T/C",[14],128%
same,"viability, T/C",[15],109%
same,"viability, T/C",[16],113%
same,"viability, T/C",[17],73.7%
same,"viability, T/C",[18],38.3%
same,"viability, T/C",[19],93.3%
same,"viability, T/C",[20],89.9%
same,"viability, T/C",[21],63.7%
same,"viability, T/C",[22],63.7%
same,"viability, T/C",[23],70.3%
same,"viability, T/C",[24],40%
same,"viability, T/C",[25],63.7%
same,"viability, T/C",[26],54.4%
same,"viability, T/C",[27],42.5%
same,"viability, T/C",[28],30.2%
same,"viability, T/C",[29],39%
same,"viability, T/C",[30],11.6%
same,"viability, T/C",[31],68.4%
same,"viability, T/C",[32],36.3%
same,"viability, T/C",[33],14.8%
same,"viability, T/C",[34],9.87%
same,"viability, T/C",[35],4.77%
same,"viability, T/C",[36],1.9%
CC1COCCN1c1cc(C2(O)CC3CCC(C2)O3)c2cnn(-c3ccn[nH]3)c2n1 (centres undefined) + CN(C)c1ccc(Nc2c3ccc(NC(=O)CCN4CCCC4)cc3nc3cc(NC(=O)CCN4CCCC4)ccc23)cc1,IC50,second compound 0.0316 µM,193 nM
same,IC50,second compound 0.1 µM,316 nM
same,IC50,second compound 0.316 µM,225 nM
same,IC50,second compound 1 µM,257 nM
same,IC50,second compound 3.16 µM,< 31.6 nM
same,IC50,second compound 10 µM,< 31.6 nM
same,"viability, T/C",[1],63%
same,"viability, T/C",[2],58.1%
same,"viability, T/C",[3],45.1%
same,"viability, T/C",[4],27.4%
same,"viability, T/C",[5],23.2%
same,"viability, T/C",[6],12%
same,"viability, T/C",[7],71.3%
same,"viability, T/C",[8],82.8%
same,"viability, T/C",[9],47.3%
same,"viability, T/C",[10],26.8%
same,"viability, T/C",[11],21.1%
same,"viability, T/C",[12],10.8%
same,"viability, T/C",[13],75.1%
same,"viability, T/C",[14],61.7%
same,"viability, T/C",[15],45.7%
same,"viability, T/C",[16],28.9%
same,"viability, T/C",[17],25%
same,"viability, T/C",[18],11.6%
same,"viability, T/C",[19],82.7%
same,"viability, T/C",[20],64.5%
same,"viability, T/C",[21],48%
same,"viability, T/C",[22],28.3%
same,"viability, T/C",[23],21.1%
same,"viability, T/C",[24],7.4%
same,"viability, T/C",[25],48.6%
same,"viability, T/C",[26],44.3%
same,"viability, T/C",[27],31.9%
same,"viability, T/C",[28],13.3%
same,"viability, T/C",[29],9.48%
same,"viability, T/C",[30],3.11%
same,"viability, T/C",[31],26.9%
same,"viability, T/C",[32],18.5%
same,"viability, T/C",[33],17%
same,"viability, T/C",[34],7.23%
same,"viability, T/C",[35],3.13%
same,"viability, T/C",[36],1.2%

# Source: PubChem BioAssay AID2060494 (Molecular Pharmacology Branch, DTP, NCI, 2025)
